In BigSolDB 2.1:

## Cc1c(N(C)CS(=O)(=O)[O-])c(=O)n(-c2ccccc2)n1C.O.[Na+]
In acetone, 293.15 K
  solubility (mole fraction): 0.0001
In acetone, 298.15 K
  solubility (mole fraction): 0.0001
In acetone, 303.05 K
  solubility (mole fraction): 0.0002
In acetone, 308.05 K
  solubility (mole fraction): 0.0002
In acetone, 313.05 K
  solubility (mole fraction): 0.0003
In acetone, 318.05 K
  solubility (mole fraction): 0.0003
In acetone, 323.05 K
  solubility (mole fraction): 0.0004
In acetone, 327.95 K
  solubility (mole fraction): 0.0005
In acetone, 332.85 K
  solubility (mole fraction): 0.0006
In ethanol, 293.15 K
  solubility (mole fraction): 0.0032
In ethanol, 298.15 K
  solubility (mole fraction): 0.0037
In ethanol, 303.05 K
  solubility (mole fraction): 0.0042
In ethanol, 308.05 K
  solubility (mole fraction): 0.0049
In ethanol, 313.05 K
  solubility (mole fraction): 0.0056
In ethanol, 318.05 K
  solubility (mole fraction): 0.0064
In ethanol, 323.05 K
  solubility (mole fraction): 0.0073
In ethanol, 327.95 K
  solubility (mole fraction): 0.0082
In ethanol, 332.85 K
  solubility (mole fraction): 0.0092
In ethyl acetate, 293.15 K
  solubility (mole fraction): 0.0001
In ethyl acetate, 298.15 K
  solubility (mole fraction): 0.0001
In ethyl acetate, 303.05 K
  solubility (mole fraction): 0.0001
In ethyl acetate, 308.05 K
  solubility (mole fraction): 0.0002
In ethyl acetate, 313.05 K
  solubility (mole fraction): 0.0002
In ethyl acetate, 318.05 K
  solubility (mole fraction): 0.0003
In ethyl acetate, 323.05 K
  solubility (mole fraction): 0.0003
In ethyl acetate, 327.95 K
  solubility (mole fraction): 0.0004
In ethyl acetate, 332.85 K
  solubility (mole fraction): 0.0005
In isopropanol, 293.15 K
  solubility (mole fraction): 0.0003
In isopropanol, 298.15 K
  solubility (mole fraction): 0.0004
In isopropanol, 303.05 K
  solubility (mole fraction): 0.0005
In isopropanol, 308.05 K
  solubility (mole fraction): 0.0006
In isopropanol, 313.05 K
  solubility (mole fraction): 0.0008
In isopropanol, 318.05 K
  solubility (mole fraction): 0.0009
In isopropanol, 323.05 K
  solubility (mole fraction): 0.0011
In isopropanol, 327.95 K
  solubility (mole fraction): 0.0014
In isopropanol, 332.85 K
  solubility (mole fraction): 0.0016
In methanol, 293.15 K
  solubility (mole fraction): 0.0278
In methanol, 298.15 K
  solubility (mole fraction): 0.0318
In methanol, 303.05 K
  solubility (mole fraction): 0.0363
In methanol, 308.05 K
  solubility (mole fraction): 0.0408
In methanol, 313.05 K
  solubility (mole fraction): 0.0475
In methanol, 318.05 K
  solubility (mole fraction): 0.0521
In methanol, 323.05 K
  solubility (mole fraction): 0.058
In methanol, 327.95 K
  solubility (mole fraction): 0.0634
In methanol, 332.85 K
  solubility (mole fraction): 0.0688
In methyl acetate, 293.15 K
  solubility (mole fraction): 0.0001
In methyl acetate, 298.15 K
  solubility (mole fraction): 0.0001
In methyl acetate, 303.05 K
  solubility (mole fraction): 0.0001
In methyl acetate, 308.05 K
  solubility (mole fraction): 0.0001
In methyl acetate, 313.05 K
  solubility (mole fraction): 0.0002
In methyl acetate, 318.05 K
  solubility (mole fraction): 0.0002
In methyl acetate, 323.05 K
  solubility (mole fraction): 0.0003
In methyl acetate, 327.95 K
  solubility (mole fraction): 0.0004
In methyl acetate, 332.85 K
  solubility (mole fraction): 0.0005
In n-butanol, 293.15 K
  solubility (mole fraction): 0.0003
In n-butanol, 298.15 K
  solubility (mole fraction): 0.0004
In n-butanol, 303.05 K
  solubility (mole fraction): 0.0005
In n-butanol, 308.05 K
  solubility (mole fraction): 0.0007
In n-butanol, 313.05 K
  solubility (mole fraction): 0.0009
In n-butanol, 318.05 K
  solubility (mole fraction): 0.0012
In n-butanol, 323.05 K
  solubility (mole fraction): 0.0015
In n-butanol, 327.95 K
  solubility (mole fraction): 0.0019
In n-butanol, 332.85 K
  solubility (mole fraction): 0.0024
In n-propanol, 293.15 K
  solubility (mole fraction): 0.0011
In n-propanol, 298.15 K
  solubility (mole fraction): 0.0013
In n-propanol, 303.05 K
  solubility (mole fraction): 0.0016
In n-propanol, 308.05 K
  solubility (mole fraction): 0.0019
In n-propanol, 313.05 K
  solubility (mole fraction): 0.0023
In n-propanol, 318.05 K
  solubility (mole fraction): 0.0028
In n-propanol, 323.05 K
  solubility (mole fraction): 0.0034
In n-propanol, 327.95 K
  solubility (mole fraction): 0.004
In n-propanol, 332.85 K
  solubility (mole fraction): 0.0047
In sec-butanol, 293.15 K
  solubility (mole fraction): 0.0002
In sec-butanol, 298.15 K
  solubility (mole fraction): 0.0003
In sec-butanol, 303.05 K
  solubility (mole fraction): 0.0004
In sec-butanol, 308.05 K
  solubility (mole fraction): 0.0006
In sec-butanol, 313.05 K
  solubility (mole fraction): 0.0007
In sec-butanol, 318.05 K
  solubility (mole fraction): 0.001
In sec-butanol, 323.05 K
  solubility (mole fraction): 0.0013
In sec-butanol, 327.95 K
  solubility (mole fraction): 0.0016
In sec-butanol, 332.85 K
  solubility (mole fraction): 0.0021
In water, 293.15 K
  solubility (mole fraction): 0.0538
In water, 298.15 K
  solubility (mole fraction): 0.0576
In water, 303.05 K
  solubility (mole fraction): 0.0615
In water, 308.05 K
  solubility (mole fraction): 0.0656
In water, 313.05 K
  solubility (mole fraction): 0.0697
In water, 318.05 K
  solubility (mole fraction): 0.0738
In water, 323.05 K
  solubility (mole fraction): 0.0782
In water, 327.95 K
  solubility (mole fraction): 0.0825
In water, 332.85 K
  solubility (mole fraction): 0.087
